ChEMBL document CHEMBL4308908, “Lamellarin-inspired potent topoisomerase I inhibitors with the unprecedented benzo[g][1]benzopyrano[4,3-b]indol-6(13H)-one scaffold” (Bioorg Med Chem, 2019)
Active and inactive are the calls of the source. No cut-off for these calls is given here.

Tests used:
OVCAR-3 = test: Antiproliferative activity against human OVCAR3 cells after 48 hrs by SRB assay; type: functional; conditions: OVCAR-3, 48 h
[1] = Toxicity in mouse Colon 26 cells implanted BALB/c mouse assessed as induction of body weight loss at 50 mg/kg, iv administered every 2 days for 7 times starting 1 day after tumor implantation and measured daily until day 20; type: organism-based; conditions: in vivo
ACHN = test: Antiproliferative activity against human ACHN cells after 48 hrs by SRB assay; type: functional
SK-OV-3 = test: Antiproliferative activity against human SKOV3 cells after 48 hrs by SRB assay; type: functional; conditions: SK-OV-3, 48 h
OVCAR-5 = test: Antiproliferative activity against human OVCAR5 cells after 48 hrs by SRB assay; type: functional; conditions: OVCAR-5, 48 h
NCI-H522 = test: Antiproliferative activity against human NCI-H522 cells after 48 hrs by SRB assay; type: functional; conditions: NCI-H522, 48 h
PC-3 = test: Antiproliferative activity against human PC3 cells after 48 hrs by SRB assay; type: functional; conditions: PC-3, 48 h
MKN-7 = test: Antiproliferative activity against human MKN7 cells after 48 hrs by SRB assay; type: functional; conditions: MKN-7, 48 h
NCI-H460 = test: Antiproliferative activity against human NCI-H460 cells after 48 hrs by SRB assay; type: functional; conditions: NCI-H460, 48 h
[2] = molecular target: T1, DNA topoisomerase I (Bos taurus) (UniProt F1MN93); test: Inhibition of calf thymus DNA topoisomerase 1 assessed as reduction in enzyme-mediated relaxation of supercoiled pBR322 plasmid DNA at 10 uM after 30 mins by ethidium bromide staining-based agarose gel electrophoresis
T1 sequence (whole entry): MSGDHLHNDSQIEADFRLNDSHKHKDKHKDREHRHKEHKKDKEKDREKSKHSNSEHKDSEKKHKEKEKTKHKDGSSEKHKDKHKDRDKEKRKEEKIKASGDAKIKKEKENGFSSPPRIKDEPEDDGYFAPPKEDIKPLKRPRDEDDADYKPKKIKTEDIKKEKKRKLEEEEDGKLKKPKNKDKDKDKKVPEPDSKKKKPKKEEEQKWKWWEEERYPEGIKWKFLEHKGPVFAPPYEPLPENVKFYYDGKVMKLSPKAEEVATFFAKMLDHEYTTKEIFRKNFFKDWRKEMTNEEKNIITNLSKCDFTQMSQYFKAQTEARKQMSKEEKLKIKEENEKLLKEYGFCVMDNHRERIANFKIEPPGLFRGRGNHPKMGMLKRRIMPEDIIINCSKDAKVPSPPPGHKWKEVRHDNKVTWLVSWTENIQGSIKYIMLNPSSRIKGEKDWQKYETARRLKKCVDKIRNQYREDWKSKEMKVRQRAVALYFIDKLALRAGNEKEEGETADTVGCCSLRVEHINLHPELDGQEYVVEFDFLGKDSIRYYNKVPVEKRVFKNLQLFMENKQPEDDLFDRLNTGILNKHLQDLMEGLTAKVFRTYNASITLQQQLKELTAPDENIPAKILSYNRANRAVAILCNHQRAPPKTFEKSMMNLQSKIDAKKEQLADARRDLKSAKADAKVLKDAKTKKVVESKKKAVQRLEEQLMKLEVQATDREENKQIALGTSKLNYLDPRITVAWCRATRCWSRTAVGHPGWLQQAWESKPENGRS

LOX IMVI = test: Antiproliferative activity against human LOXIMVI cells after 48 hrs by SRB assay; type: functional
SNB-78 = test: Antiproliferative activity against human SNB78 cells after 48 hrs by SRB assay; type: functional; conditions: SNB-78, 48 h
SF-268 = test: Antiproliferative activity against human SF268 cells after 48 hrs by SRB assay; type: functional; conditions: SF-268, 48 h
Colon 26 = test: Antitumor activity against mouse Colon 26 cells implanted in BALB/c mouse at 50 mg/kg, iv administered every 2 days for 7 times starting 1 day after tumor implantation and measured daily until day 20; type: functional, organism-based
A549 = test: Antiproliferative activity against human A549 cells after 48 hrs by SRB assay; type: functional; conditions: A549, 48 h
MKN-74 = test: Antiproliferative activity against human MKN74 cells after 48 hrs by SRB assay; type: functional; conditions: MKN-74, 48 h
SF-295 = test: Antiproliferative activity against human SF295 cells after 48 hrs by SRB assay; type: functional; conditions: SF-295, 48 h
KM12 = test: Antiproliferative activity against human KM12 cells after 48 hrs by SRB assay; type: functional; conditions: KM12, 48 h
HCC 2998 = test: Antiproliferative activity against human HCC2998 cells after 48 hrs by SRB assay; type: functional; conditions: HCC 2998, 48 h
DMS-114 = test: Antiproliferative activity against human DMS114 cells after 48 hrs by SRB assay; type: functional; conditions: DMS-114, 48 h
DU-145 = test: Antiproliferative activity against human DU145 cells after 48 hrs by SRB assay; type: functional; conditions: DU-145, 48 h
[3] = Antiproliferative activity against human HBC4 cells after 48 hrs by SRB assay; type: functional; conditions: HBC4, 48 h
HCT-15 = test: Antiproliferative activity against human HCT15 cells after 48 hrs by SRB assay; type: functional; conditions: HCT-15, 48 h
HCT-116 = test: Antiproliferative activity against human HCT116 cells after 48 hrs by SRB assay; type: functional; conditions: HCT-116, 48 h
OVCAR-4 = test: Antiproliferative activity against human OVCAR4 cells after 48 hrs by SRB assay; type: functional; conditions: OVCAR-4, 48 h
MDA-MB-231 = test: Antiproliferative activity against human MDA-MB-231 cells after 48 hrs by SRB assay; type: functional; conditions: MDA-MB-231, 48 h
U-251 = test: Antiproliferative activity against human U251 cells after 48 hrs by SRB assay; type: functional; conditions: U-251, 48 h
MKN-45 = test: Antiproliferative activity against human MKN45 cells after 48 hrs by SRB assay; type: functional; conditions: MKN-45, 48 h
[4] = molecular target: T1, DNA topoisomerase I (Bos taurus); test: Inhibition of calf thymus DNA topoisomerase 1 assessed as reduction in enzyme-mediated relaxation of supercoiled pBR322 plasmid DNA at 10 uM after 30 mins by agarose gel electrophoresis
[5] = Antiproliferative activity against human HBC5 cells after 48 hrs by SRB assay; type: functional; conditions: HBC5, 48 h
MKN-1 = test: Antiproliferative activity against human MKN1 cells after 48 hrs by SRB assay; type: functional; conditions: MKN-1, 48 h
HT-29 = test: Antiproliferative activity against human HT-29 cells after 48 hrs by SRB assay; type: functional; conditions: HT-29, 48 h
DMS-273 = test: Antiproliferative activity against human DMS273 cells after 48 hrs by SRB assay; type: functional; conditions: DMS-273, 48 h

GI50 (OVCAR-3): 56.2 nM
GI50 (ACHN; read-out: GI50): 2.9 nM
GI50 (ACHN; read-out: pGI50 (converted)): 2.88 nM
GI50 (SK-OV-3; read-out: GI50): 20 nM
GI50 (SK-OV-3; read-out: pGI50 (converted)): 19.9 nM
GI50 (OVCAR-5): 45.7 nM
GI50 (NCI-H522; read-out: GI50): 3.4 nM
GI50 (NCI-H522; read-out: pGI50 (converted)): 3.47 nM
GI50 (PC-3): 70.8 nM
GI50 (MKN-7): 52.5 nM
GI50 (NCI-H460): 4.37 nM
inhibition [2]: Active
GI50 (A549): 52.5 nM
GI50 (MKN-74): 75.9 nM
GI50 (HCC 2998): 91.2 nM
GI50 (DU-145; read-out: GI50): 3.2 nM
GI50 (DU-145; read-out: pGI50 (converted)): 3.16 nM
GI50 (HCT-15): 58.9 nM
GI50 (HCT-116; read-out: GI50): 15 nM
GI50 (HCT-116; read-out: pGI50 (converted)): 15.5 nM
GI50 (OVCAR-4): 36.3 nM
GI50 (MDA-MB-231): 148 nM
GI50 (U-251; read-out: GI50): 3.4 nM
GI50 (U-251; read-out: pGI50 (converted)): 3.39 nM
GI50 (MKN-45): 105 nM
inhibition [4]: Active
GI50 (MKN-1): 44.7 nM
GI50 (HT-29): 955 nM
Structure (SMILES): COc1cc2c(ccc3c4c(=O)oc5cc(OC(=O)[C@@H](N)C(C)C)c(OC)cc5c4n(C)c23)cc1OC(=O)[C@@H](N)C(C)C.O=C(O)C(F)(F)F.O=C(O)C(F)(F)F
Activity [1]: Non-Toxic
GI50 (LOX IMVI; read-out: GI50): 2.5 nM
GI50 (LOX IMVI; read-out: pGI50 (converted)): 2.51 nM
GI50 (SNB-78): 282 nM
GI50 (SF-268): 8.32 nM
Activity (Colon 26): Active
GI50 (SF-295): 12.9 nM
GI50 (KM12): 57.5 nM
GI50 (DMS-114): 4.37 nM
GI50 [3]: 10 nM
GI50 [5]: 138 nM
GI50 (DMS-273): 4.27 nM
